The subject of this assay is human keratinocytes. As to the kind of experiment: Growth of human keratinocytes (HKc/HPV16), TGFβ-induced growth arrest. Conditions: read-out: IC50 of growth inhibition of human keratinocytes, dose-dependent.

The term IC50 denotes the midpoint of a concentration-inhibition curve.

Consider “TGFβ: Recombinant human TGFβ1 purchased from Austral Biologicals”, for which the IC50 was ~5 pM.
